Experimental data from the NIST ThermoML archive (doi:10.1016/j.jct.2017.03.034).

Assay: molar heat capacity at constant pressure
Details: Liquid, Large sample (1 g) DSC

CCCCCCCCCC [decane]
molar heat capacity at constant pressure [J/K/mol]
Details	120 kPa	10170 kPa
323.15 K	326.25	322.98
328.15 K	328.24	325.68
333.15 K	330.52	328.39
338.15 K	333.22	330.95
343.15 K	336.21	333.65
348.15 K	339.06	336.35
353.15 K	341.9	339.06
358.15 K	344.46	342.05
363.15 K	346.88	344.61
368.15 K	349.73	347.31
373.15 K	352.72	350.3
378.15 K	355.56	353
383.15 K	358.55	355.7
388.15 K	361.68	358.41
393.15 K	364.81	361.4
398.15 K	367.8	364.24
403.15 K	371.21	367.09
408.15 K	–	370.07
413.15 K	–	372.78
418.15 K	–	375.77
423.15 K	–	379.32
428.15 K	–	382.6

CCCCCCCCCCCC [dodecane]
molar heat capacity at constant pressure [J/K/mol]
Details	100 kPa	10180 kPa
323.15 K	386.32	385.13
328.15 K	389.56	388.02
333.15 K	392.79	391.26
338.15 K	395.86	394.33
343.15 K	399.09	397.39
348.15 K	402.33	400.46
353.15 K	405.57	403.52
358.15 K	408.8	406.93
363.15 K	412.04	410
368.15 K	415.28	413.23
373.15 K	418.85	416.13
378.15 K	422.09	419.36
383.15 K	425.5	422.6
388.15 K	428.73	426.01
393.15 K	432.31	429.07
398.15 K	435.38	433.16
403.15 K	438.78	435.89
408.15 K	442.53	438.78
413.15 K	445.77	441.68
418.15 K	449.34	444.06
423.15 K	452.92	447.64
428.15 K	456.5	450.88
433.15 K	460.59	454.28
438.15 K	465.35	458.2
443.15 K	–	462.12
448.15 K	–	465.7
453.15 K	–	469.95

CCCCCCCCCCCCCCCC [hexadecane]
molar heat capacity at constant pressure [J/K/mol]
Details	130 kPa	10090 kPa
323.15 K	513.57	512.21
328.15 K	517.19	515.83
333.15 K	520.81	519.46
338.15 K	524.66	523.31
343.15 K	528.51	526.48
348.15 K	532.82	530.1
353.15 K	536.44	534.4
358.15 K	540.74	538.48
363.15 K	544.59	542.1
368.15 K	548.67	546.4
373.15 K	553.2	550.7
378.15 K	557.27	554.55
383.15 K	561.57	558.86
388.15 K	565.65	563.16
393.15 K	569.73	567.24
398.15 K	574.03	571.31
403.15 K	578.56	575.61
408.15 K	583.09	579.92
413.15 K	586.94	584.44
418.15 K	591.46	588.97
423.15 K	595.77	593.05
428.15 K	599.62	596.45
433.15 K	603.92	600.3
438.15 K	608.67	604.6
443.15 K	613.2	609.35
448.15 K	617.28	613.66
453.15 K	622.26	617.05
458.15 K	–	621.35
463.15 K	–	625.43
468.15 K	–	630.19
473.15 K	–	634.94

CCCCCC [hexane]
molar heat capacity at constant pressure [J/K/mol]
Details	323.15 K	328.15 K	333.15 K	338.15 K	343.15 K	348.15 K	353.15 K	358.15 K	363.15 K	368.15 K
140 kPa	203.63	205.7	207.85	–	–	–	–	–	–	–
10090 kPa	200.62	202.43	204.49	206.13	208.11	210.1	211.91	214.15	216.04	218.37

CCCCCCCC [octane]
molar heat capacity at constant pressure [J/K/mol]
Details	100 kPa	10130 kPa
323.15 K	263.3	260.9
328.15 K	265.7	263.18
333.15 K	267.98	265.58
338.15 K	270.38	267.75
343.15 K	272.66	270.04
348.15 K	275.18	272.32
353.15 K	277.58	274.49
358.15 K	280.09	277
363.15 K	282.6	279.17
368.15 K	285.11	281.57
373.15 K	287.86	283.97
378.15 K	290.37	286.49
383.15 K	293.45	288.88
388.15 K	–	290.94
393.15 K	–	292.88
398.15 K	–	295.97

CCCCCCCCCCCCCC [tetradecane]
molar heat capacity at constant pressure [J/K/mol]
Details	120 kPa	10120 kPa
323.15 K	449.55	447.76
328.15 K	452.72	451.13
333.15 K	456.09	454.51
338.15 K	459.47	457.88
343.15 K	463.04	461.25
348.15 K	466.61	464.82
353.15 K	470.38	468.2
358.15 K	474.15	471.97
363.15 K	477.72	475.54
368.15 K	481.49	478.91
373.15 K	485.26	483.07
378.15 K	489.03	486.45
383.15 K	492.8	489.82
388.15 K	496.76	493.19
393.15 K	500.14	497.16
398.15 K	504.5	500.73
403.15 K	508.27	503.71
408.15 K	512.44	508.47
413.15 K	515.81	511.64
418.15 K	519.58	515.41
423.15 K	523.35	518.78
428.15 K	527.12	522.16
433.15 K	530.89	525.93
438.15 K	535.25	529.3
443.15 K	539.81	533.47
448.15 K	543.58	537.63
453.15 K	547.95	541.6
458.15 K	554.1	545.77
463.15 K	559.65	550.33
468.15 K	–	553.9
473.15 K	–	558.07
478.15 K	–	562.83
483.15 K	–	566.79
